Reference: US11884681B2, “3H,4H,5H,6H,7H-pyrimido[4,5-b][1,4]oxazine-4,6-dione derivatives as TRPA1 inhibitors” (Boehringer Ingelheim International GmbH, priority 2021, dated 2024)

Assays:
[1] = Assay C: Hepatocyte clearance; assay type: in vitro ADME, human; settings: compounds of the invention; hepatocyte suspension, 5% species serum, 1 μM compound, up to 6 h
Protocol: Assay C: Hepatocyte Clearance
The metabolic degradation of the test compound is assayed in a hepatocyte suspension. Hepatocytes (cryopreserved) are incubated in Dulbecco's modified eagle medium (supplemented with 3.5 μg glucagon/500 mL, 2.5 mg insulin/500 mL and 3.75 mg/500 mL hydrocortison) containing 5% species serum.
The cells are incubated for six hours (incubator, orbital shaker) and samples (25 μl) are taken at 0, 0.5, 1, 2, 4 and 6 hours. Samples are transferred into acetonitrile and pelleted by centrifugation (5 min). The supernatant is transferred to a new 96-deepwell plate, evaporated under nitrogen and resuspended.
Decline of parent compound is analyzed by HPLC-MS/MS
CLint is calculated as follows CL_[…]=Dose/AUC=(CO/CD)/(AUD+clast/k)×1000/60. C0: initial concentration in the incubation [μM], CD: cell density of vital cells [10e6cells/mL], AUD: area under the data [μM×h], clast: concentration of last data point [μM], k: slope of the regression line for parent decline [h−1].
The calculated in vitro hepatic intrinsic clearance can be scaled up to the intrinsic in vivo hepatic Clearance and used to predict hepatic in vivo blood clearance (CL) by the use of a liver model (well stirred model). CL_[…]_INVIVO [ml/min/kg]=(CL_[…] [μL/min/10e6cells]×hepatocellularity [10e6 cells/g liver]×liver factor [g/kg bodyweight])/1000 CL [ml/min/kg]=CL_[…]_INVIVO [ml/min/kg]×hepatic blood flow [ml/min/kg]/(CL_[…]_INVIVO [ml/min/kg]+hepatic blood flow [ml/min/kg]) Qh [%]=CL [ml/min/kg]/hepatic blood flow [ml/min/kg])
(§1) Hepatocellularity, human: 120×10e6 cells/g liver
(§2) Liver factor, human 25.7 g/kg bodyweight
(§3) Blood flow, human 21 ml/(min×kg)

[2] = molecular target: T1, human TRPA1 ion channel (Homo sapiens, UniProt O75762); test: Assay A: TRPA1 assay (FLIPR calcium, AITC agonism); assay type: cell-based; settings: compounds of the invention; HEK293 over-expressing human TRPA1, AITC final 10 μM, FLIPRtetra; read-out: hTRPA1 IC50
T1 construct: host or cells: HEK293
Protocol: A human HEK293 cell line over-expressing the human TRPA1 ion channel (Perkin Elmer, Product No. AX-004-PCL) is used as a test system for compound efficacy and potency. Compound activity is determined by measuring the effect of compounds on intracellular calcium concentration induced by AITC (Allylisothiocyanat) agonism in a FLIPRtetra system (Molecular Devices).
The cells are obtained as frozen cells in cryo-vials and stored until use at −150° C. Cells are grown in culture medium (MEM/EBSS medium with 10% FCS and 0.4 mg/ML Geneticin). […] For sub-culturing cells are detached from flasks by Versene. At the day before the assay, cells are detached, washed twice with medium (MEM/EBSS medium with 10% FCS) and 20000 cells in 20 μl/well are seeded to Poly D-Lysin biocoated 384-well plates (black, clear bottom, Cat. 356697) from Corning. Plates are incubated for 24 hours at 37° C./5% CO2 before use in the assay.
The test compounds are dissolved in 100% DMSO at a concentration of 10 mM and in a first step diluted in DMSO to a concentration of 5 mM, followed by serial dilution steps in 100% DMSO. Dilution factor and number of dilution steps may vary according to needs. Typically 8 different concentrations by 1:5 dilutions are prepared, further intermediate dilutions (1:20) of the substances are carried out with HBSS/HEPES buffer (1×HEPES, Cat. 14065 from Gibco, 20 mM HEPES, Cat. 83264 from SIGMA, 0.1% BSA Cat. 11926 from Invitrogen, pH 7.4
At the assay day cells are washed 3× with assay puffer, 20 μL buffer remaining in the wells after washing. 10 μL Ca6 kit (Cat. R8191 MolecularDevices) loading buffer in HBSS/HEPES is added to the cells and the plates are incubated with lid for 120 minutes at 37°/5% CO2. […] Finally 10 μL of the agonist AITC 50 μM dissolved in HBSS/HEPES buffer/0.05% DMSO (final concentration 10 μM) is added to the wells followed by an additional read on the FLIPRtetra device for 10 minutes. The area under the signal curve (AUC) after AITC addition is used for IC50/% inhibition calculations
Data Evaluation and Calculation:
Each assay microtiter plate contains wells with vehicle (1% DMSO) controls instead of compound as controls for AITC induced luminescence (100% CTL; high controls) and wells with vehicle controls without AITC as controls for non-specific changes in luminescence (0% CTL; low controls).
The analysis of the data is performed by the calculation of the area under signal curve of the individual wells. Based on this values the % value for the measurement of each substance concentration is calculated (AUC(sample)−AUC(low))*100/(AUC(high)−AUC(low)) using MegaLab software (in house development). The IC50 values are calculated from the % control values using MegaLab software. Calculation: [y=(a−d)/(1+(x/c)^b)+d], a=low value, d=high value; x=conc M; c=IC50 M; b=hill; y=% ctrl

[3] = Assay B: Microsomal clearance; assay type: in vitro ADME, human; settings: compounds of the invention; pooled liver microsomes 1 mg/ml, 1 μM compound, 37° C., NADPH
Protocol: Assay B: Microsomal Clearance:
The metabolic degradation of the test compound is assayed at 37° C. with pooled liver microsomes. The final incubation volume of 100 μl per time point contains TRIS buffer pH 7.6 at RT (0.1 M), magnesium chloride (5 mM), microsomal protein (1 mg/ml) and the test compound at a final concentration of 1 μM.
Following a short preincubation period at 37° C., the reactions are initiated by addition of beta-nicotinamide adenine dinucleotide phosphate, reduced form (NADPH, 1 mM) and terminated by transferring an aliquot into solvent after different time points (0, 5, 15, 30, 60 min). Additionally, the NADPH-independent degradation is monitored in incubations without NADPH, terminated at the last time point. The [%] remaining test compound after NADPH independent incubation is reflected by the parameter c(control) (metabolic stability). The quenched incubations are pelleted by centrifugation (10000 g, 5 min).
An aliquot of the supernatant is assayed by LC-MS/MS for the amount of parent compound. The half-life (t1/2 INVITRO) is determined by the slope of the semilogarithmic plot of the concentration-time profile.
The intrinsic clearance (CL_[…]) is calculated by considering the amount of protein in the incubation: CL_[…] [μl/min/mg protein]=(Ln 2/(half-life [min]*protein content [mg/ml]))*1000 CL_[…]_INVIVO [ml/min/kg]=(CL_[…] [μL/min/mg protein]×MPPGL [mg protein/g liver]×liver factor [g/kg bodyweight])/1000 Qh [%]=CL [ml/min/kg]/hepatic blood flow [ml/min/kg])
as §1, §2, §3

T1 sequence (O75762 whole entry): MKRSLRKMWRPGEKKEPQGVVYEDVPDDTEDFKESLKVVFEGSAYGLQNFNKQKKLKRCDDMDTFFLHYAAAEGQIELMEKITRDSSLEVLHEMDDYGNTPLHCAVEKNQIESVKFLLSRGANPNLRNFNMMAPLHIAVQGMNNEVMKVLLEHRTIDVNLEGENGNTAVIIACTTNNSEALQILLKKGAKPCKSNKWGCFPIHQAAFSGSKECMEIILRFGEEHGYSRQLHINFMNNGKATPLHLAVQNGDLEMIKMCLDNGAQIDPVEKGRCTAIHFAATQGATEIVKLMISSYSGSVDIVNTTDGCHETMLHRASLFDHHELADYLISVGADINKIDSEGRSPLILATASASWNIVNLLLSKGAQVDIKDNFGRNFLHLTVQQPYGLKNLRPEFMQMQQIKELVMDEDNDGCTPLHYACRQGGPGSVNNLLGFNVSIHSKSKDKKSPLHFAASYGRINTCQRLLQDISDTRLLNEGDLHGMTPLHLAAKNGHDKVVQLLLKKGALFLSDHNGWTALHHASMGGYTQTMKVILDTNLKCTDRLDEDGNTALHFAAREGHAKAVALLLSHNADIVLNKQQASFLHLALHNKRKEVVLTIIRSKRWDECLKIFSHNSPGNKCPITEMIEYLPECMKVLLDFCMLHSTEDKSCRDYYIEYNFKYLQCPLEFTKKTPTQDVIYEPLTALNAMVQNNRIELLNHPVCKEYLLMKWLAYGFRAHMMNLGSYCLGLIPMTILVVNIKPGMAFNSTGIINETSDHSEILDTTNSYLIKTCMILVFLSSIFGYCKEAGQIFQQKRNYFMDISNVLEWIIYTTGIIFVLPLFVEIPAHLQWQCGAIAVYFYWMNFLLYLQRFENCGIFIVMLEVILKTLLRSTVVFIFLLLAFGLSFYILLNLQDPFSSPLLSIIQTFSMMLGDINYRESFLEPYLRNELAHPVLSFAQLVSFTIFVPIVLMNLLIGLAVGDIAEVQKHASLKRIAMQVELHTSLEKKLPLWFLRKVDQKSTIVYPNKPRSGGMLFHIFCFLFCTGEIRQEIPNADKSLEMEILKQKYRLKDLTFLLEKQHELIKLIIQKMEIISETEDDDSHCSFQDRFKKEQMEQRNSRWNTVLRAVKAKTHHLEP

Compound	human Hepatocytes [1]	IC50 [2]	human LM [3]
CN1C(=O)COc2ncn(Cc3nc(C[C@H](O)c4ccc(Cl)cc4)no3)c(=O)c21 [Example 1, 3-({3-[(2S)-2-(4-chlorophenyl)-2-hydroxyethyl]-1,2,4-oxadiazol-5-yl}methyl)-5-methyl-3H,4H,5H,6H,7H-pyrimido[4,5-b][1,4]oxazine-4,6-dione]	9 % Qh	0.057 µM	<23 % Qh
CN1C(=O)COc2ncn(Cc3nc(C[C@H](O)c4cc5ccc(F)cc5s4)no3)c(=O)c21 [Example 2]	34 % Qh	0.012 µM	<23 % Qh
CN1C(=O)COc2ncn(Cc3nc(C[C@H](O)c4cc5ccccc5s4)no3)c(=O)c21 [Example 3]	31 % Qh	0.027 µM	<23 % Qh

Continued, values first:

human Hepatocytes [1]	IC50 [2]	human LM [3]	Compound
22 % Qh	0.039 µM	<23 % Qh	CN1C(=O)COc2ncn(Cc3nc(C[C@H](O)c4cc5cc(F)ccc5o4)no3)c(=O)c21 [Example 4]
22 % Qh	0.039 µM	29 % Qh	CN1C(=O)COc2ncn(Cc3nc(C[C@H](O)c4ccc(I)cc4)no3)c(=O)c21 [Example 5]
37 % Qh	0.051 µM	56 % Qh	CN1C(=O)COc2ncn(Cc3nc(C[C@H](O)c4cc5cc(Cl)ccc5o4)no3)c(=O)c21 [Example 6]
9 % Qh	0.12 µM	<23 % Qh	Cc1ccc([C@@H](O)Cc2noc(Cn3cnc4c(c3=O)N(C)C(=O)CO4)n2)cc1 [Example 7]
